Results on 1 compound are retold here after US9750841B2, “Biodegradable medical adhesive and preparation method and use thereof” (INSTITUTE OF PHARMACOLOGY AND TOXICOLOGY ACADEMY OF …, priority 2011, dated 2017).

SMILES strings stand for the structures.

The nature of data set [1]: Test of curing time of formulated adhesives on pigskin. The format is physicochemical. The note with it: between two pieces of pigskin, room temperature. The source says:
Test Method: The medical adhesives of different formulations in Examples 1 and 2 were respectively dropped in a small amount on the surface of one piece of pigskin at room temperature, and the other piece of pigskin was rapidly lapped thereon; the two pieces of pigskin were respectively pulled in opposite directions, to test the adhesion between them. The duration starting from the generation of adhesion between the two pieces of pigskin to the complete cure of the liquid adhesive between the two pieces of pigskin after lapping for a certain time was designated as the curing time.

Data set [2] in a line: Degradation of cured adhesive in PBS buffer. The data set is classed as physicochemical. Conditions: 14 days, 0.1 M phosphate buffer pH 7.2-7.4, 37.5° C., average of three samples. An excerpt: After 14 days, the residual solids were weighed. The results were used to evaluate the degradation properties.
A short description of data set [3]: Accelerated degradation in 0.1 N NaOH solution. The format is physicochemical. The note with it: disappearance to the naked eye. As for the experimental part:
Further accelerated degradation test was carried out in a 0.1 N NaOH solution. The operation method was the same as that provided in this example, with the use of formulated adhesive J01 and the control as samples. The time point when the adhesive bond completely disappeared to the naked eye was regarded as the complete degradation time.

For data set [4] the following is noted: rat, in vivo. Here is the method:
Two groups of adult rats, each six, were taken. The abdominal cavity was opened, a section of small intestine was lifted and stretched out with a biodegradable thread, approximately 1 cm away from the body, and in an inverted “U” shape. […] After the adhesive bond was completely cured and the small intestine was adhered together (about 1 minute), the small intestine was put back into the abdominal cavity, followed by suturing. Normal healing time of biological tissue was about 7-10 days. After 2 weeks, the small intestine was stretched out again, for observing the changes of the small intestine per se and the adhesive bond.

The nature of data set [5]: TEM test of adhesive structure. The data set is classed as physicochemical. The note with it: 0.1 mg/mL dilution in water, phosphotungstic acid staining. Here is the method: 20 mg of adhesive (A, n-butyl cyanoacrylate as control; B, formulated adhesive J01 (bis-α-cyanoacrylic acid PEG2000 ester:n-butyl cyanoacrylate 1:1, i.e., the formulated adhesive in Example 1) was dissolved in 1 mL of redistilled acetone, to obtain a homogeneous solution, which was diluted by 100-fold. 0.5 mL of the dilution was taken and mixed with 0.5 mL of deionized water. Acetone was distilled off, and water was supplemented till 1 mL, to obtain a 0.1 mg/mL dilution. 15 uL of the dilution was dropped on a copper web-like of electron microscopy, and settled for 15 min. Then, water was removed by adsorption with filter paper. After staining with 5 uL of phosphotungstic acid for 2 min, the samples were observed by transmission electron microscopy.

Data set [6] can be described thus: Adhesion test of skin incision injury, rats. The data set is classed as in vivo. Conditions: 2 cm dorsal skin incision, observed over 7 days. Here is the method:
(§1) Five adult rats and five guinea pigs were unhaired on the back, and subjected to abdominal anesthesia. After the back was disinfected, a longitudinal incision of about 2 cm in length was cut about 1 cm next to the dorsal line, deep to muscular layer. […] On the other side of the back, an incision of the same size was cut, and the wound was treated in the same way with the control adhesive n-butyl cyanoacrylate. Finally, the operative sites were bandaged using gauze.

A short description of data set [7]: Adhesion test of skin incision injury, guinea pigs. The format is in vivo. Conditions: 2 cm dorsal skin incision, observed over 7 days. As for the experimental part:
as §1

Data set [8] in a line: Adhesion test of skin incision injury of dog. The data set is classed as in vivo. The note with it: 4 cm skin incision, two stitches plus adhesive, after one week.
Experimental: Adult test dogs (purchased from Experimental Animal Center of Academy of Military Medical Sciences) were unhaired on the neck and back, and disinfected. A longitudinal incision of about 4 cm in length was cut on the left side, deep to muscular layer. […] On the other side of the same position, an incision of the same size was cut, and also sutured in two stitches. Then, the wound was treated in the same way with n-butyl cyanoacrylate.
Data set [9] is described as follows: Intestinal skyrocketing compression test in rats. The data set is classed as in vivo, SD rats. Conditions: rat small intestine, 2 mm hole closed with 5 uL adhesive, tested after 3 min, seven animals per group. As for the experimental part:
Twenty SD rats (purchased from Experimental Animal Center of Academy of Military Medical Sciences) were anaesthetized by intraperitoneal injection of 45 mg/kg sodium pentobarbital, and unhaired on the abdomen. The abdominal cavity was opened, and a section of small intestine 45 mm was taken out. One end of the small intestine was ligated with a silk thread, and the other end was cut to make a small incision, which was then connected to a three-way tube in connection with a pressure gauge and a tension transducer. A syringe needle 2 mm in diameter was used to open a small hole in the small intestine. After cleaning off drainage with cotton, the small hole was rapidly closed by smearing 5 uL medical adhesive, and then test was conducted after standing for 3 min. […] The pressure value at this point was just the maximum tolerable pressure. There were seven animals per group, and the average value and variance were calculated.

`C=C(C#N)C(=O)OCCCC` [n-butyl cyanoacrylate] had a curing time in data set [1] of 5 to 15 s. In data set [2], the “Residual solids % in PBS” value is given as 95.74%. Besides, in data set [3], the “complete degradation time in NaOH (solids completely disappeared)” value is on record as 4 days. Also, the “changes of the small intestine tissue” value in data set [4] is “significantly had hyperplasia and significantly became thicker”. Moreover, in data set [5], the “structure observed by transmission electron microscopy” value is “relatively solid and dense microsphere structure”. Also, the wound closure result in data set [6] and in data set [7] was “well closed” in each case. In data set [8], the wound healing entry is reported as “good healing”. In addition, the maximum tolerable pressure in [9] is 120.22±26.81 mmHg.
